Data on 13 compounds can be found in US4029801A, “Pharmaceutical compositions and methods of treating hypertension” (priority 1970, dated 1977).

Where two headings read alike, the source gives them in different places.

The test system of one data set is blood pressure. Description: Tests for action on the cardiovascular system: hypotensive activity (activity in method 1, rats or cats, or method 2), reported in words. It is filed as in vivo, rat, cat. Particulars: standard test procedure, result in words. The method, boiled down:
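Method 1: pentobarbitone-anaesthetised cats, test compounds i.v. at 0.1-25.6 mg/kg, aortic blood pressure, heart rate and left ventricular pressure recorded. Method 2: renal hypertensive rats (figure-8 ligature plus contralateral nephrectomy, 6 weeks), dosed IP or orally; systolic pressure by tail plethysmography before and 2 and 24 h post-dose versus controls.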

Another data set concerns tremorine. Description: Anti-tremorine activity. It is filed as in vivo. Particulars: result in words.
In a further data set the test system is α-adrenoceptor. Put plainly: α-Adrenoceptor antagonism on the guinea pig aortic strip. Particulars: for pA2 (α-adrenoceptor antagonism): guinea pig aortic strip; for α-adrenoceptor antagonism: result in words; for α-blockade pA2: Table 4. From the text: Carried out on the guinea pig aortic strip [Furchgott and Bhadrakom (1953) J. Pharmac. exp. Ther. 108, 129-143] by the method of Alps et al [Br. J. Pharmac. 1972 44, 52-62].

In the next data set the target is T1, histamine (Cavia porcellus, UniProt P31389).
T1 construct: from tissue
T1 sequence (P31389 whole entry): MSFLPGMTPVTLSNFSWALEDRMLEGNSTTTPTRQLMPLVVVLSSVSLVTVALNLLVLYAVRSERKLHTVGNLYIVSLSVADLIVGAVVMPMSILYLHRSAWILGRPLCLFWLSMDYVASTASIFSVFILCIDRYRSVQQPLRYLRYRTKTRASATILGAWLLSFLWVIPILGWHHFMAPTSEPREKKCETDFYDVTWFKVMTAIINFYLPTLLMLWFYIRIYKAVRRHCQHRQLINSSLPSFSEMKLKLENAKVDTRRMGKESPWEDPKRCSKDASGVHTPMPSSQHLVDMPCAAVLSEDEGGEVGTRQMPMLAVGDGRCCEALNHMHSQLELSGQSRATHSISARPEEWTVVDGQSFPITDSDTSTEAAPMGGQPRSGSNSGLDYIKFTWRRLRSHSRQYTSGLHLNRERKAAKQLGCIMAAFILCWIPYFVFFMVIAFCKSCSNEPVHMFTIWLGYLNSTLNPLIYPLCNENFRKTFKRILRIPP
Put plainly: Antihistamine activity by the method of Alps et al. Particulars: for antihistamine activity: result in words.

Data set [1] has as its system blood pressure and heart rate. Description: Method 1 (rat): hypotensive activity in anaesthetised rats, i.v. Particulars: for minimal effective dose: Rattus norvegicus, iv; for Significant bradycardia (dose; decrease in heart rate of more than 30%): anaesthetised rat, i.v., cumulative dose.
Description: Rats were anaesthetised with pentobarbitone sodium (60 mg/kg) and the jugular vein, trachea and carotid artery were cannulated. […] A decrease in heart rate of more than 30% from control values was considered to be significant bradycardia.
Another data set is described as follows: Depressant activity. It is filed as in vivo. Particulars: result in words.
The nature of another data set: Anti-convulsant activity. It is filed as in vivo. The conditions noted are these: result in words.
Another data set is described as follows: Antiarrhythmic activity. The conditions noted are these: result in words.
A further data set relates to systolic pressure. Description: Method 2: anti-hypertensive activity in renal hypertensive rats. It is filed as in vivo, rat. As for the experimental part: Method 2 (hypertensive rats)
Male or female rats are rendered hypertensive by applying a figure of 8 ligature around one kidney and contralateral nephrectomy. Blood pressure stabilises at a hypertensive level after 6 weeks. Systolic pressure is measured indirectly using a Decker Caudal Plethysmograph A control group of rats is run with each group treated with drug. Each group usually consists of six rats. Drugs are usually administered by the IP or oral routes. Pressures are read prior to drug administration and at two and 24 hours thereafter.
Falls in systolic blood pressure 2 hr after an oral dose of 40 mg/kg: >50
mm, +++; 50-30 mm, ++; 30-15 mm, +; <15 mm, ±. g Oral dose of 75 mg/kg
h Oral dose of 10 mg/kg. i Oral dose of 2.5 mg/kg.

Data set [2] has as its system blood pressure and heart rate. Put plainly: Method 1 (cat): blood pressure, heart rate and left ventricular pressure in anaesthetised cats, i.v. It is filed as in vivo. Particulars: 3.2 mg/kg. As for the experimental part: Cats were anaesthetised with pentobarbitone sodium (30 mg/kg) and the cephalic vein, femoral and carotid arteries and trachea were cannulated. The carotid cannula was introduced into the left ventricle and the femoral cannula into the aorta. Blood pressure and heart rate were recorded from the aortic cannula and left ventricular pressure from the carotid cannula. The test compunds were administered intravenously (0.1-25.6 mg/kg).

The nature of data set [3]: Anti-inflammatory activity. It is filed as in vivo. Particulars: result in words.
The subject of a further data set is oxotremorine. Description: Antioxotremorine activity. It is filed as in vivo. The conditions noted are these: result in words.
The subject of the next data set is mouse. Put plainly: Acute toxicity (LD50) in the mouse. The conditions noted are these: result in words.
Data set [4] can be described thus: Acute toxicity (LD50) in the mouse. The conditions noted are these: in vivo.
[5] abbreviates: Table 4, read-out: Antihistamine pA2 (converted).
The mark [6] stands for this setting: pA2 (antihistamine activity), Table 2.
Setting [7] is: 0.25 h, read-out: Hypotensive Activity.
[8] abbreviates: read-out: Significant hypotension (dose; fall of 30 mm mercury or more in diastolic pressure).

In the case of `O=C(NC1CCN(CCCc2ccccc2)CC1)c1ccccc1` [Example 39, 1-[3-Phenylpropyl]-4-benzamidopiperidine], in the data set with blood pressure, the hypotensive activity entry is on record as “good hypotensive activity”. The anti-tremorine activity entry in the data set with tremorine is recorded as “anti-tremorine activities”. The “pA2 (α-adrenoceptor antagonism)” value with α-adrenoceptor is reported as 7.1. Also, in the data set on α-adrenoceptor, the α-adrenoceptor antagonism entry was “α-adrenoceptor antagonism”. Moreover, the Kb at histamine (setting [5]) was 2.51 nM; at histamine (setting [6]), 3.16 nM. In addition, the antihistamine activity result at histamine is recorded as “anti-histamine”. The minimal effective dose in data set [1] (setting [7]) lay in the range of 6.4 to 12.8 mg/kg; in data set [1] (setting [8]), 0.8 to 6.4 mg/kg. In addition, the “Significant bradycardia (dose; decrease in heart rate of more than 30%)” value in data set [1] was 25.6 mg/kg.

Regarding `O=C(NC1CCN(CCc2ccc([N+](=O)[O-])cc2)CC1)c1ccccc1` [Example 22, 1-[2-(p-Nitrophenyl)ethyl]-4-benzamidopiperidine], the hypotensive activity result with blood pressure is “hypotensive activity”. In addition, in the data set “Depressant activity”, the depressant activity result is reported as “depressant”. Besides, in the data set with tremorine, the anti-tremorine activity result is “anti-tremorine activities”. Moreover, the minimal effective dose in data set [1] (setting [7]) was 25.6 mg/kg.

Turning to `O=C(NC1CCN(CCc2ccc(Cl)cc2)CC1)c1ccccc1` [Example 48, 4-Benzamido-1-[2-(p-chlorophenyl)ethyl]piperidine], in the data set on blood pressure, the hypotensive activity result is on record as “hypotensive activity”. In addition, the anti-convulsant activity result in the data set “Anti-convulsant activity” is on record as “anti-convulsant activity”. In data set [1] (setting [7]), the minimal effective dose is 6.4 to 12.8 mg/kg.

Consider `O=C(CCCN1CCC(NC(=O)c2ccccc2)CC1)c1ccccc1` [Example 43, 4-Benzamido-1-(4-phenyl-4-oxobutyl)piperidine], for which, in the data set on blood pressure, the hypotensive activity entry is recorded as “marked hypotensive activity”. Moreover, in “Antiarrhythmic activity”, the antiarrhythmic activity entry is reported as “antiarrythmic activities”. Besides, the “Anti-hypertensive Activity” value with systolic pressure (Table 3, fall in systolic blood pressure 2 hr after oral dose of 40 mg/kg) is “+ ++”. Besides, the “Pressure reduced to” value in the data set with systolic pressure (hypertensive rat, 40 mg/kg p.o., from 174 mmHg) is on record as 122 mmHg. Moreover, in data set [2], the “Significant lowering of blood pressure” value is 52 mmHg, the cardiac effort index result is “lowered”, the cardiac output result is “lowered” and the heart rate lowered amounted to 35%. Besides, the “myocardial contractile force decreased” value in data set [2] came to 33%. Moreover, in the data set with α-adrenoceptor, the “pA2 (α-adrenoceptor antagonism)” value was 7.7 and the α-adrenoceptor antagonism result was “α-adrenoceptor antagonist”. For the same compound, on histamine (setting [5]), the Kb is 0.251 nM. In addition, at histamine (setting [6]), the Kb was 0.316 nM. Besides, the antihistamine activity entry at histamine is given as “antihistamine”. Moreover, the minimal effective dose in data set [1] (setting [7]) is 0.8 mg/kg. In addition, the minimal effective dose in data set [1] (setting [8]) lay within 0.8 to 1.6 mg/kg. Also, in data set [1], the “Significant bradycardia (dose; decrease in heart rate of more than 30%)” value lay in the range of 0.8 to 1.6 mg/kg.

As to `O=C(NC1CCN(CCc2c(Cl)cccc2Cl)CC1)c1ccccc1` [Example 38, 1-[2-(2,6-Dichlorophenyl)ethyl]-4-benzamidopiperidine], the hypotensive activity entry with blood pressure is listed as “hypotensive activity”. The depressant activity entry in “Depressant activity” is reported as “depressant activities”. Besides, the anti-tremorine activity result in the data set with tremorine is recorded as “anti-tremorine”. In addition, the minimal effective dose in [1] (setting [7]) was < 30 mg/kg.

For the compound `O=C(NC1CCN(CCc2ccc(Cl)c(Cl)c2)CC1)c1ccccc1` [Example 37, 1-[2-(3,4-Dichlorophenyl)ethyl]-4-benzamidopiperidine], the hypotensive activity result with blood pressure is recorded as “good hypotensive activity”. For the same compound, the anti-tremorine activity entry in the data set on tremorine was “anti-tremorine activities”. In addition, in the data set on α-adrenoceptor, the “α-blockade pA2” value stood at 7.35 and the α-adrenoceptor antagonism result is “α-adrenoceptor antagonism”. Further, the Kb on histamine (setting [5]) was 3.98 nM. Also, the antihistamine activity result on histamine is “antihistamine”. Further, the minimal effective dose in data set [1] (setting [7]) fell in the range of 1.6 to 3.2 mg/kg.

With `CC(=O)Nc1ccc(CCN2CCC(NC(=O)c3ccccc3)CC2)cc1` [Example 24, 1-[2-(p-Acetamidophenyl)ethyl]-4-benzamidopiperidine], in the data set on blood pressure, the hypotensive activity entry is on record as “hypotensive activity”. For the same compound, the depressant activity entry in “Depressant activity” is “depressant”. The anti-tremorine activity result in the data set with tremorine is listed as “anti-tremorine activities”. Besides, the minimal effective dose in [1] (setting [7]) was 6.4 to 12.8 mg/kg.

Turning to `O=C(NC1CCN(CCCC(O)c2ccc(F)cc2)CC1)c1ccccc1` (centres unmarked) [Example 54, 1-[4-(p-Fluorophenyl)-4-hydroxybutyl]-4-benzamidopiperidine], the hypotensive activity result with blood pressure is given as “hypotensive activity”. In addition, in the data set on systolic pressure (hypertensive rat, 10 mg/kg, from 209 mmHg), the “Pressure reduced to” value turned out to be 164 mmHg. In addition, the toxicity result in the data set on systolic pressure (hypertensive rat, 40 m.p.k.) was “Toxic”. For the same compound, in the data set with α-adrenoceptor, the “pA2 (α-adrenoceptor antagonism)” value amounted to 6.6. The same compound gave a Kb on histamine (setting [6]) of 316 nM. In addition, at histamine, the antihistamine activity entry is “potent antihistamine activity”. Further, the minimal effective dose in data set [1] (setting [7]) and in data set [1] (setting [8]) was 6.4 to 12.8 mg/kg throughout. Further, in data set [1], the “Significant bradycardia (dose; decrease in heart rate of more than 30%)” value was in the range of 6.4 to 12.8 mg/kg.

With `O=C(NC1CCN(CC(O)c2ccc(Cl)c(Cl)c2)CC1)c1ccccc1` (centres unmarked) [Example 36, 1-[2-(3,4-Dichlorophenyl)-2-hydroxyethyl]-4-benzamidopiperidine], the hypotensive activity result in the data set on blood pressure is given as “hypotensive”. Further, the anti-convulsant activity entry in the data set “Anti-convulsant activity” is “anti-convulsant activities”. The minimal effective dose in data set [1] (setting [7]) was < 30 mg/kg.

For the compound `O=C(NC1CCN(CCc2ccc3ccccc3c2)CC1)c1ccccc1` [Example 13, 1-[2-(2-Naphthyl)ethyl]-4-benzamidopiperidine], in the data set on blood pressure, the hypotensive activity result is recorded as “hypotensive activity”. In “Antiarrhythmic activity”, the antiarrhythmic activity entry is on record as “antiarrythmic activities”. Besides, in the data set with α-adrenoceptor, the “α-blockade pA2” value was 7.4 and the α-adrenoceptor antagonism entry is recorded as “α-adrenoceptor antagonism”. For the same compound, at histamine (setting [5]), the Kb was 25.1 nM. On histamine, the antihistamine activity entry is reported as “antihistamine”. Further, the minimal effective dose in [1] (setting [7]) lay within 1.6 to 3.2 mg/kg.

`O=C(CCCN1CCC(NC(=O)c2ccccc2)CC1)c1ccc(F)cc1` [Example 19, 1-[4-(4-Fluorophenyl)-4-oxobutyl]-4-benzamidopiperidine]: the hypotensive activity result with blood pressure is listed as “marked hypotensive activity”. For the same compound, in the data set “Depressant activity”, the depressant activity result is on record as “depressant”. Further, the “Pressure reduced to” value with systolic pressure (hypertensive rat, 10 mg/kg p.o., from 188 mmHg) came out at 138 mmHg. Moreover, in [2], the “Significant lowering of blood pressure” value worked out at 38 mmHg, the cardiac effort index entry is listed as “lowered”, the cardiac output result was “decreased” and the heart rate lowered is 28.9%. Also, the “myocardial contractile force decreased” value in data set [2] worked out at 25.7%. Besides, in the data set on α-adrenoceptor, the “α-blockade pA2” value is on record as 7.5 and the “pA2 (α-adrenoceptor antagonism)” value is listed as 7.4. Besides, the Kb on histamine (setting [6]) was 2.51 nM. In addition, the antihistamine activity entry at histamine is on record as “antihistamine”. The minimal effective dose in data set [1] (setting [7]) turned out to be 0.8 mg/kg. Also, in data set [1] (setting [8]), the minimal effective dose lay within 0.8 to 1.6 mg/kg. Further, the “Significant bradycardia (dose; decrease in heart rate of more than 30%)” value in [1] is listed as 1.6 mg/kg. Also, the anti-inflammatory activity entry in data set [3] is “antiinflammatory activity”.

Take `O=C(NC1CCN(CC(O)c2ccccc2)CC1)c1ccccc1` (centres unmarked) [Example 20, 1-(2-Hydroxy-2-phenylethyl)-4-benzamidopiperidine]: in the data set with blood pressure, the hypotensive activity entry is on record as “hypotensive activity”. In the data set on oxotremorine, the antioxotremorine activity result is on record as “antioxotremorine activity”. Moreover, the “α-blockade pA2” value with α-adrenoceptor came to 6.6. The antihistamine activity result at histamine is listed as “antihistamine”. Further, the minimal effective dose in [1] (setting [7]) was 6.4 to 12.8 mg/kg.

Turning to `O=C(CCCN1CCC(NC(=O)c2ccccc2)CC1)c1ccc(O)cc1` [Example 63, 4-Benzamido-1-[4-(4-hydroxyphenyl)-4-oxobutyl]piperidine], in the data set with blood pressure, the hypotensive activity entry is given as “good hypotensive activity”. For the same compound, in the data set with mouse, the toxicity entry is “remarkably low toxicity”. In [4] (ip), the LD50 was found to be 1630 mg/kg and the LD50 at 24 h was > 4000 mg/kg. In [4] (po), the LD50 is > 4000 mg/kg. In the data set on α-adrenoceptor, the “α-blockade pA2” value is 7.0 and the α-adrenoceptor antagonism result was “α-adrenoceptor antagonism”. For the same compound, the Kb at histamine (setting [5]) was 1.26 nM. Further, the minimal effective dose in [1] (setting [7]) was found to be 25.6 mg/kg.
